How the values were obtained:
Type in all cases: cell-based
[1] = molecular target: T1, Ba/F3 KIF5B-RET^V804M cells (Homo sapiens, UniProt P07949, V804M, cells depend on it); assay: Cytotoxicity assay (CellTiter-Glo), Ba/F3 KIF5B-RET V804M; conditions: CellTiter-Glo, 72 hrs; read-out: Ba/F3 KIF5B-RET^V804M IC50
T1 construct: Ba/F3 KIF5B-RET^V804M IC50 (nM); other: CellTiter-Glo, 72 hrs; fused on or other part: P33176 (Kinesin-1 heavy chain)
Procedure: (§1) Inhibitory effects of example compounds on the activity of Ba/F3 parental generation, Ba/F3 KIF5B-RET, Ba/F3 KIF5B-RET^V804M, Ba/F3 KIF5B-RET^V804L, Ba/F3 KIF5B-RET^G810R, Ba/F3 FLT3-ITD, Ba/F3 FLT3-ITD^D835Y, Ba/F3 FLT3-ITD^F691L cells were determined.
(§2) Materials and reagents: fetal bovine serum FBS (GIBCO, Cat #10099141), CellTiter-Glo® Luminescent Cell Viability Assay kit (Promega, Cat #G7572), 96-well black-wall clear flat-bottom plate (Corning®, Cat #3603).
(§3) 1. Cells in the logarithmic growth phase were harvested and counted with a […]. Cell viability was detected by a trypan blue exclusion method, ensuring that cell viability was 90% or more; 2. Cell concentration was adjusted to about 3000 cells/well; 90 μl of cell suspension was added to each well of the 96-well plate; 3. The cells in the 96-well plate were incubated overnight under the condition of 37° C., 5% CO2, and 95% humidity.
(§4) 1. A series of compound solutions were formulated by 3.16-fold serial dilution starting from a concentration of 10 μM, resulting in 9 concentrations. 10 μL of the compound solutions were added in each well of the 96-well plate seeded with cells in triplicate for each compound concentration; 2. The cells in the 96-well plate added with compounds were further incubated under the condition of 37° C., 5% CO2, and 95% humidity for 72 hrs, and then CTG analysis was carried out.
(§5) 1. CTG reagent was thawed, and the cell plate was equilibrated at room temperature for 30 minutes; 2. An equal volume […] of CTG solution was added to each well; 3. The cell plate was shaken on an orbital shaker for 5 minutes to lyse the cells; 4. The cell plate was placed at RT for 20 minutes to stabilize the luminescence signal; 5. Luminescence value was read.
(§6) Data were Analyzed by GraphPad Prism 5.0 Software, and Fitted by Nonlinear S-Curve Regression to obtain a dose-response curve, from which IC50 values were calculated.
(§7) Cell survival rate (%)=(luminescence value of drug to be tested−luminescence value of culture medium control)/(luminescence value of cell control−luminescence value of culture medium control)×100%.

[2] = system: Ba/F3 KIF5B-RET^V804M cells; assay: as above; conditions: ratio of Ba/F3 parental IC50 to Ba/F3 KIF5B-RET^V804M IC50
Procedure: as §1, §2, §3, §4, §5, §6, §7

Ba/F3 KIF5B-RET cells [3] = molecular target: T2, Ba/F3 KIF5B-RET cells (Homo sapiens, UniProt P07949); assay: Cytotoxicity assay (CellTiter-Glo), Ba/F3 KIF5B-RET; conditions: CellTiter-Glo, 72 hrs; read-out: Ba/F3 KIF5B-RET IC50
T2 construct: Ba/F3 KIF5B-RET IC50 (nM); other: CellTiter-Glo, 72 hrs; fused on or other part: P33176 (Kinesin-1 heavy chain)
T2 sequence (P07949 whole entry, change not shown, the tested form may be a part): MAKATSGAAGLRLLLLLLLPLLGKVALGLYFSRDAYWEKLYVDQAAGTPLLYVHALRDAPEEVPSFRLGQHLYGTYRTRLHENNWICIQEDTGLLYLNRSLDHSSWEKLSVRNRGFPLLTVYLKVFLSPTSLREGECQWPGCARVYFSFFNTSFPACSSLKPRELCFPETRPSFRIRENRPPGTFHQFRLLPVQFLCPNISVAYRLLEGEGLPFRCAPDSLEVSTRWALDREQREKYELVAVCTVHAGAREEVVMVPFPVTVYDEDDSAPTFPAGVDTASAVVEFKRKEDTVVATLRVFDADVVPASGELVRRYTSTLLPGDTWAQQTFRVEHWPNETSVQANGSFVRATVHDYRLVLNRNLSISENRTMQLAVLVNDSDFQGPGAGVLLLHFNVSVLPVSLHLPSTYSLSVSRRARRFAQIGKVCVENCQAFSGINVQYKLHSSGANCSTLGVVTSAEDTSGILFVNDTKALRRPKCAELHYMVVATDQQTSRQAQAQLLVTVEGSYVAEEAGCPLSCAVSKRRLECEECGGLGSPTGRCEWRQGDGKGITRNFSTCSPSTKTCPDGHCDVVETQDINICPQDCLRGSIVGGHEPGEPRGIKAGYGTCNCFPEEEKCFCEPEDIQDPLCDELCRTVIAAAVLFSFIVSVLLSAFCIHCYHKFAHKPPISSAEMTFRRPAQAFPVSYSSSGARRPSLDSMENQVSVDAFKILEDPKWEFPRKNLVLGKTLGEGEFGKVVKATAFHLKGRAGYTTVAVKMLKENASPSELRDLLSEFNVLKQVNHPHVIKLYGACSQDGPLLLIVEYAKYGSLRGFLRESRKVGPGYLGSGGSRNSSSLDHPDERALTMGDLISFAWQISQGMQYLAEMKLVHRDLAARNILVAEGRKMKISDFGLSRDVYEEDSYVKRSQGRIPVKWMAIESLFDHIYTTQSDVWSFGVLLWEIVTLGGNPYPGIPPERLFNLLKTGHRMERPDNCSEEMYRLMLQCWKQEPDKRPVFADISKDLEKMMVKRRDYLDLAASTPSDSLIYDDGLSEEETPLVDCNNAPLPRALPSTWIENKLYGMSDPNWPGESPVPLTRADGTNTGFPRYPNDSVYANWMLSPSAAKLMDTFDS
Procedure: as §1, §2, §3, §4, §5, §6, §7

Ba/F3 KIF5B-RET cells [4] = assay: as above; conditions: ratio of Ba/F3 parental IC50 to Ba/F3 KIF5B-RET IC50
Procedure: as §1, §2, §3, §4, §5, §6, §7

[5] = system: Ba/F3 parental generation cells; assay: Cytotoxicity assay (CellTiter-Glo), Ba/F3 parental; conditions: Mus musculus, BaF3, Table 2, 72 hrs
Procedure: as §1, §2, §3, §4, §5, §6, §7

[6] = system: Ba/F3 FLT3-ITD^D835Y cells; assay: Cytotoxicity assay (CellTiter-Glo), Ba/F3 FLT3-ITD D835Y; conditions: ratio of Ba/F3 parental IC50 to Ba/F3 FLT3-ITD^D835Y IC50
Procedure: as §1, §2, §3, §4, §5, §6, §7

[7] = molecular target: T3, Ba/F3 FLT3-ITD^D835Y cells (Homo sapiens, UniProt P36888, D835Y, cells depend on it, form not given); assay: as above; conditions: CellTiter-Glo, 72 hrs; read-out: Ba/F3 FLT3-ITD^D835Y IC50
T3 construct: Ba/F3 FLT3-ITD^D835Y IC50 (nM); other: CellTiter-Glo, 72 hrs
T3 sequence (P36888 1-993 D835Y): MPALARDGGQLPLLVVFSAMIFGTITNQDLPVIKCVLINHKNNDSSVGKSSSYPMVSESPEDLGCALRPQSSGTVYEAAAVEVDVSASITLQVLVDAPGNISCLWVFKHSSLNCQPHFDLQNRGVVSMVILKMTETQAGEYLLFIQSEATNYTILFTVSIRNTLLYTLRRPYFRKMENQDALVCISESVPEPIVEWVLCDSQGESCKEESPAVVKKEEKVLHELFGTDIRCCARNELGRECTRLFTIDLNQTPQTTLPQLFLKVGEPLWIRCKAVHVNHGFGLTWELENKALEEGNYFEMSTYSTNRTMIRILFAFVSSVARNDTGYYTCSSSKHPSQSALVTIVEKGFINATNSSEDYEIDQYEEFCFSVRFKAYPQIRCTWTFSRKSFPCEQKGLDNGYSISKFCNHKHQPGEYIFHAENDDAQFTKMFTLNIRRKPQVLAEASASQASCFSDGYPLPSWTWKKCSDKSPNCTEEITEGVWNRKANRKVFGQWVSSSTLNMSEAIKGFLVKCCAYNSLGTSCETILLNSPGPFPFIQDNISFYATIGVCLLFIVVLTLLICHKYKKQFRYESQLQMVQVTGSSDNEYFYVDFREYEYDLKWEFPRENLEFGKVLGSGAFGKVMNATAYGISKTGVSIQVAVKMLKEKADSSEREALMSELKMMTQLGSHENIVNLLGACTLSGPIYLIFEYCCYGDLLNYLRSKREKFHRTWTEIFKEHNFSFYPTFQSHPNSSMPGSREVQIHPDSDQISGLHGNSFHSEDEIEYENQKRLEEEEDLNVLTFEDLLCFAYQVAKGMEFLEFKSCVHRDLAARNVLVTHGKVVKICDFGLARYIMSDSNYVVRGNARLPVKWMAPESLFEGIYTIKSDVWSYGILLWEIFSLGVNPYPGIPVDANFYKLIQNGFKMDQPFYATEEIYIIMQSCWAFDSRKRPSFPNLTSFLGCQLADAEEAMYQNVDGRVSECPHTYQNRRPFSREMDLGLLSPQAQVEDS
Procedure: as §1, §2, §3, §4, §5, §6, §7

[8] = system: Ba/F3 KIF5B-RET^V804L cells; assay: Cytotoxicity assay (CellTiter-Glo), Ba/F3 KIF5B-RET V804L; conditions: ratio of Ba/F3 parental IC50 to Ba/F3 KIF5B-RET^V804L IC50
Procedure: as §1, §2, §3, §4, §5, §6, §7

T1 sequence (P07949 whole entry V804M, the tested form may be a part): as the sequence (P07949 whole entry, change not shown, the tested form may be a part) above, with V804M counted along it

Compound	GI50 [1] [nM]	Ba/F3 KIF5B-RET^V804M Selectivity on parental generation [2]	GI50 (Ba/F3 KIF5B-RET cells [3]) [nM]	Ba/F3 KIF5B-RET Selectivity on parental generation (Ba/F3 KIF5B-RET cells [4])	IC50 [5] [nM]	Ba/F3 FLT3-ITD^D835Y Selectivity on parental generation [6]	GI50 [7] [nM]	Ba/F3 KIF5B-RET^V804L Selectivity on parental generation [8]
CC(C)n1nc(-c2ccc(NC(=O)Nc3cc(C(F)(F)F)ccc3F)cc2)c2c(N)ncnc21 [AD80, reference compound]	10.8	75.2	2.19	370.7	812	21.82	30.1	89.7
CC(C)n1nc(-c2ccc(CC(=O)Nc3cc(C(C)(C)C(F)(F)F)on3)cc2)c2c(N)ncnc21 [Compound T-1, 2-(4-(4-amino-1-isopropyl-1H-pyrazolo[3,4-d]pyrimidin-3-yl)phenyl)-N-(5-(1,1,1-trifluoro-2-methylprop-2-yl)isoxazol-3-yl)acetamide]	5.65	286.8	0.15	10802.6	1620	137.97	14.4	436.8
CC(C)n1nc(-c2ccc(NC(=O)Nc3cc(C(C)(C)C(F)(F)F)on3)cc2)c2c(N)ncnc21 [Compound T-2, 1-(4-(4-amino-1-isopropyl-1H-pyrazolo[3,4-d]pyrimidin-3-yl)phenyl)-3-(5-(1,1,1-trifluoro-2-methylprop-2-yl)isoxazol-3-yl)urea]	2.64	128.0	0.16	2111.4	338	35.48	6.05	62.68
CC(C)n1cc(-c2ccc(CC(=O)Nc3cc(C(C)(C)C(F)(F)F)on3)cc2)c2c(N)ncnc21 [Compound T-3, 2-(4-(4-amino-7-isopropyl-7H-pyrrolo[2,3-d]pyrimidin-5-yl)phenyl)-N-(5-(1,1,1-trifluoro-2-methylprop-2-yl)isoxazol-3-yl)acetamide]	3.21	225.7	0.58	1249.0	724	218.67	2.92	199.6
CC(C)c1nc(-c2ccc(CC(=O)Nc3cc(C(C)(C)C(F)(F)F)on3)cc2)c2c(N)nccn12 [Compound T-4, 2-(4-(8-amino-3-isopropylimidazo[1,5-a]pyrazin-1-yl)phenyl)-N-(5-(1,1,1-trifluoro-2-methylprop-2-yl)isoxazol-3-yl)acetamide]	9.53	73.6	1.56	449.4	701	32.03	23.1	22.2
CC(C)c1cc(-c2ccc(CC(=O)Nc3cc(C(C)(C)C(F)(F)F)on3)cc2)c2c(N)ncnn12 [Compound T-5, 2-(4-(4-amino-7-isopropylpyrrolo[2,1-f][1,2,4]triazin-5-yl)phenyl)-N-(5-(1,1,1-trifluoro-2-methylprop-2-yl)isoxazol-3-yl)acetamide]	12.9	370.8	2.88	1660.8	4780	133.6	35.8	242.8
CC(C)n1nc(-c2ccc(CC(=O)Nc3cc(C(C)(C)C(F)(F)F)on3)c(F)c2)c2c(N)ncnc21 [Compound T-6, 2-(4-(4-amino-1-isopropyl-1H-pyrazolo[3,4-d]pyrimidin-3-yl)-2-fluorophenyl)-N-(5-(1,1,1-trifluoro-2-methylprop-2-yl)isoxazol-3-yl)acetamide]	9.9	211.7	0.31	6759.6	2100	193.58	9.6	361.3
CC(C)n1nc(-c2ccc(CC(=O)Nc3cc(C(C)(C)C(F)(F)F)on3)cn2)c2c(N)ncnc21 [Compound T-7, 2-(6-(4-amino-1-isopropyl-1H-pyrazolo[3,4-d]pyrimidin-3-yl)pyridin-3-yl)-N-(5-(1,1,1-trifluoro-2-methylprop-2-yl)isoxazol-3-yl)acetamide]	3.42	95.9	4.61	71.2	328	32.63	5.57	5.9

From patent US20220380375A1, “SUBSTITUTED AROMATIC FUSED RING DERIVATIVE AND COMPOSITION COMPRISING SAME, AND USE THEREOF” (Shenzhen TargetRx, Inc., priority 2019, published 2022)
